Like-named read-outs stand apart in the source and are kept apart here.
Legend:
[1] = test system: 3-Chlorobenzoate Dechlorination Activity; assay: Induction of 3-chlorobenzoate dechlorination activity by growth with 3-chlorobenzoate, analogues, or chloro- and iodobenzoates (Tables 4, 5); format: cell-based, Desulfomonile tiedjei
Protocol: Table 4. Cultures were grown in the presence of 3-chlorobenzoate or a 3-chlorobenzoate analogue substituted at the 1- or 3- position with the indicated functional groups. After several generations the culture were concentrated, washed and resuspended in anaerobic buffered salts containing 1 mM 3-chlorobenzoate and 10 mM pyruvate (as electron donor). […] After two hours samples were taken for benzoate analysis by HPLC. Values presented are the average of duplicate or triplicate cultures ± sample standard deviation.
Table 5. Chloro- and iodobenzoates were tested as inducers of 3-chlorobenzoate dehalogenation activity as described in the legend to Table 4. All compounds were initially at 500 μM; the 3-halo compounds were amended during growth as they were dehalogenated. Values presented are the average of duplicate or triplicate cultures± sample standard deviation.

[2] = test system: Dechlorination of 3-Chlorobenzoate; assay: Dechlorination of 3-chlorobenzoate in the presence of various analogues by induced cells (Table 6); format: cell-based; settings: Desulfomonile tiedjei, read-out: dechlorination of 3-chlorobenzoate in the presence of analogue, % of Control
Protocol: […]. 3-fluorobenzoate induced cultures were washed and resuspended essentially as described in the legend to […] with 100 μM 3-chlorobenzoate and the indicated analogues at 500 μM. Dechlorination rates were normalized to the rate in assays with no analogue to obtain the values presented.

dechlorination of 3CB = settings: cited from earlier work
[3] = test system: Desulfomonile tiedjei cells; assay: PCE and TCE dechlorination by resuspended cells induced with 3-fluorobenzoate versus non-induced cells (Table 1, FIG. 1); format: cell-based; settings: for Mole % recovered, TCE / Mole % recovered, cis-DCE / Total Cl Removed: 2 μg/ml substrate, 37° C., 2 hr; for Mole % recovered, TCE / Mole % recovered, cis-DCE: average of duplicate vials; for Total Cl Removed: calculated from input concentration and Mole % recovered
Protocol: (§1) Cultures were grown using strict anaerobic technique in a synthetic minimal medium amended with vitamins (DeWeerd, et al, Arch. of Microbiol. 154, 23-30 (1990)), pyruvate at 20 mM, and reduced with 1 mM cysteine and 0.1 mM Na2 S2 O4. The concentration of nicotinamide and 1,4-naphthoquinone were 500 μgl^-1 and 200 μgl^-1, respectively. Thiamine, hemin and lipoic acid were used at 50 μg/liter. To induce 3-chlorobenzoate dechlorination activity, 3-fluorobenzoate was added to 0.1 mM. The complete medium was inoculated with a 1% transfer from homologous medium (without fluorobenzoate). Cultures were grown at 37° C. in the dark for about 14 days for fresh cells or 28 days for starved stationary phase cells.
(§2) Cultures were harvested by centrifugation and resuspended in 20 to 40% of the initial volume in a cold anaerobic assay buffer normally consisting of 50 mM NaCl, 10 mM sodium pyruvate, 10 mM HEPES (N-2[hydroxyethylP]piperazine-N'-[2-ethanesulfonic acid], hemisodium salt Sigma);, 0.00001% resazurin and reduced with 1 mM cysteine-HCl and 1 mM titanium (III) citrate. Resuspended cells were used to completely fill N2 sparged 10 ml serum bottles after which chlorinated ethylenes were added from a 0.5 or 1 mg/ml stock in methanol for PCE and TCE respectively. The vials were immediately sealed with Teflon lined rubber septa and aluminum crimp seals, leaving no headspace. The assays were commenced by transferring the serum bottles to a 37° C. water bath. The assays were terminated at the indicated times by transferring the serum bottles to an ice water bath, where they were stored until analyzed. Protein concentrations were determined by a modification of the Lowry method (Hanson, R. S. and J. A. Phillips, In P. Gerhardt (ed.) Manual of methods for general microbiology. American Society for Microbiology, Washington, D. C. p. 328-364 (1981)).
(§3) Chlorinated ethylenes were monitored with a Tekmar purge and trap unit (model 4000) connected to a Hewlett-Packard GC (Sunnyville, Calif.) equipped with an HP-5 cappillary column (30 m×0.53 mm×2.6 μm film thickness) and flame ionization detector. Samples (5 ml) were purged onto Tenax TA (Supelco, Bellefonte, Pa.) adsorbent with helium (30 ml/min for 16 min.), desorbed (180° C. for 4 min.), and separated using helium as a carrier at 6 ml/min. The temperature program was 30° C. for 8 min, increasing to 200° C. at 4° C./min and followed by an isothermal period of 5 min. The injection and detector temperatures were 220° C. and 300° C., respectively. PCE and its dechlorinated products were identified by comparison with authentic standards.
To further examine the transformation of both PCE and TCE and to determine if dechlorination of TCE also requires induction, a similar experiment was conducted to measure the initial transformation rates of PCE and TCE (Table 1.). […] The extent of transformation of PCE to TCE ([…] in 2H) was considerably faster than the rate of transformation of TCE to DCE ([…] in 2h), as expected from the redox potentials of these reactions (Vogel, T. M., et al., Environ. Sci. Technol. 21:722-736 (1987)) and results from mixed culture systems (Bouwer, E. J., and P. L. McCarty, Appl. Environ. Microbiol. 45:1286-1294 (1983)). The rate of transformation of PCE and TCE were much greater for the induced cultures than for the non-induced cultures.
^a suspensions were amended with PCE or TCE to a final concentration
of 2 μg/ml and incubated at 37° C. for 2 hr. Suspensions of
induced and uninduced cells contained 149 and 153 μg protein per ml
^b Data are presented as the average of duplicate vials with the
sample standard deviation in parenthesis.
^c Calculated from the input concentration of chlorinated ethylenes
and the Mole % of recovered material.

[4] = test system: Desulfomonile tiedjei cells; assay: Effect of different medium reductants and sterilant on PCE dechlorination by induced cells (Table 2); format: cell-based; settings: formaldehyde, final concentration 0.2%
Protocol: as §1, with “The” for “Cultures were grown using strict anaerobic technique in a synthetic minimal medium amended with vitamins (DeWeerd, et al, Arch. of Microbiol. 154, 23-30 (1990)), pyruvate at 20 mM, and reduced with 1 mM cysteine and 0.1 mM Na2 S2 O4. The”
as §2, with “analyzed.” for “analyzed. Protein concentrations were determined by a modification of the Lowry method (Hanson, R. S. and J. A. Phillips, In P. Gerhardt (ed.) Manual of methods for general microbiology. American Society for Microbiology, Washington, D. C. p. 328-364 (1981)).”
as §3
Data are the average of duplicate vials and […]

[5] = Table 5, inducers initially 500 μM, 3-halo compounds amended during growth
[6] = Table 4, inducers at 500 μM except 3-formylbenzoate 100 μM and 3-chlorobenzoate (amended at intervals), assay 1 mM 3-chlorobenzoate, two hours
[7] = 100 μM 3-chlorobenzoate, analogue 500 μM, normalized to rate with no analogue
[8] = growing cells and resuspended cells

O=C(O)c1ccccc1Cl [2-chloro-]
Induction Activity (3-chlorobenzoate dechlorination activity) [1, 5]: 0 ± 0 nMol/hr/mg protein

O=C(O)c1ccccc1I [2-iodobenzoate]
Induction Activity (3-chlorobenzoate dechlorination activity) [1, 5]: 13 ± 9 nMol/hr/mg protein

O=C(O)c1cccc(F)c1 [3-fluorobenzoate]
Induction Activity (3-chlorobenzoate dechlorination activity) [1, 6]: 570 ± 37 nMol/hr/mg protein | activity at 500 µM [2, 7]: 114%

O=Cc1cccc(C(=O)O)c1 [3-formylbenzoate]
Induction Activity (3-chlorobenzoate dechlorination activity) [1, 6]: 8 ± 1 nMol/hr/mg protein

O=C(O)c1cccc(I)c1 [3-iodo-, m-iodobenzoate]
Induction Activity (3-chlorobenzoate dechlorination activity) [1, 5]: 582 ± 59 nMol/hr/mg protein

Cc1cccc(C(=O)O)c1 [3-methyl-benzoate]
Induction Activity (3-chlorobenzoate dechlorination activity) [1, 6]: 409 ± 6 nMol/hr/mg protein | activity at 500 µM [2, 7]: 119%

O=C(O)c1ccc(I)cc1 [4-iodobenzoate]
Induction Activity (3-chlorobenzoate dechlorination activity) [1, 5]: 7 ± 10 nMol/hr/mg protein

OCc1cccc(Cl)c1 [--CH2 OH --Cl, 3-chlorobenzyl alcohol]
Induction Activity (3-chlorobenzoate dechlorination activity) [1, 6]: 86 ± 5 nMol/hr/mg protein | activity at 500 µM [2, 7]: 108%

O=C(O)c1cccc(C(F)(F)F)c1 [--COOH --CF3, m-trifluoromethyl benzoate]
Induction Activity (3-chlorobenzoate dechlorination activity) [1, 6]: 383 ± 6 nMol/hr/mg protein | activity at 500 µM [2, 7]: 94%

N#Cc1cccc(C(=O)O)c1 [--COOH --CN]
Induction Activity (3-chlorobenzoate dechlorination activity) [1, 6]: 7 ± 1 nMol/hr/mg protein | activity at 500 µM [2]: 76%

O=C(O)c1ccccc1 [--COOH --H, benzoate]
activity at 500 µM [2]: 106%

Nc1cccc(C(=O)O)c1 [--COOH --NH2]
Induction Activity (3-chlorobenzoate dechlorination activity) [1, 6]: 4 ± 1 nMol/hr/mg protein | activity at 500 µM [2, 7]: 78%

O=C(O)c1cccc(O)c1 [--COOH --OH]
Induction Activity (3-chlorobenzoate dechlorination activity) [1, 6]: 3 ± 4 nMol/hr/mg protein | activity at 500 µM [2, 7]: 91%

O=S(=O)(O)O [Sulfate]
effect on dechlorination of 3CB (dechlorination of 3CB; cells growing on a different medium or resuspended cells): not by cells growing on a different medium or by resuspended cells | effect on dechlorination of 3CB (dechlorination of 3CB; cells growing on one medium): inhibited dechlorination of 3CB

ClC=C(Cl)Cl [TCE, trichloroethylene]
product formation from PCE or TCE ([3]; Only cultures pre-induced with 3-fluorobenzoate): measurable product formation | Mole % recovered, TCE ([3]; induced (+)): 89.2 Mole % | Mole % recovered, cis-DCE ([3]; induced (+)): 10.8 Mole % | Total Cl Removed ([3]; induced (+)): 11.0 μmol/g prot. in 2 h | Mole % recovered, TCE ([3]; non-induced (-)): 100.0 Mole % | Mole % recovered, cis-DCE ([3]; non-induced (-)): 0.0 Mole % | Total Cl Removed ([3]; non-induced (-)): 0.0 μmol/g prot. in 2 h | rate of transformation of TCE to DCE ([3]; pre-induced with 3-fluorobenzoate): 11 mol g protein ^-1 in 2h

O=S(O)(O)=S [Thiosulfate]
effect on dechlorination of 3CB (dechlorination of 3CB; [8]): inhibit dechlorination of 3CB

C=O [formaldehyde]
effect on PCE dechlorination [4]: almost totally blocked dechlorination

O=S(O)O [sulfite]
effect on dechlorination of 3CB (dechlorination of 3CB; [8]): inhibit dechlorination of 3CB

— patent US5200343A, “Method for microbial dehalogenation of haloaliphatic compounds using a sulfate reducing bacteria, desulfomonile tiedjei” (Board of Trustees operating Michigan State University, priority 1991, dated 1993)
